# Values quoted from earlier work, collected in US20180104231A1, “BENZALKONIUM CHLORIDE FREE OPHTHALMIC COMPOSITION CONTAINING (+)-(S)-4-[4-CHLOROPHENYL) (2-PYRIDYL) METHOXY] PIPERDINO] BUTYRIC ACID OR PHARMACOLOGICALLY ACCEPTABLE ACID ADDITION SALT, THEREOF” (INTERA HEALTHCARE PLC, priority 2016, published 2018).
# Tests used:
# [1] = with the lapse of time
# [2] = test system: corneal epithelium and endothelium
Compound,Stability to light in an aqueous solution [1],"Effect of BAC exposure on cornea ([2]; BAC 0.0001%, minimum of 15 min exposure)",Effect of BAC on corneal epithelial cells ([2]; clinical concentration (0.005%))
O=C(O)CCCN1CCC(O[C@@H](c2ccc(Cl)cc2)c2ccccn2)CC1.O=S(=O)(O)c1ccccc1 [bepotastine besilate],unstable to light,,
benzalkonium chloride [BAC],,physiological changes (edema) and ultra-structural changes to corneal epithelium and endothelium,cell wrinkling to lifting of corneal epithelial cells
